Converted amounts (≈) assume the structure as drawn.
How the values were obtained:
[1] = target: T1, human 5-HT6 (Homo sapiens, UniProt P50406); experiment: [3H]-LSD radioligand binding assay, 5-HT6R; conditions: HEK293 expressing human 5-HT6R, read-out: 5-HT6 Ki
T1 construct: expressed in transfected cells
Experimental: Next, the ligands’ affinity for the 5-HT6 receptors was evaluated in the [^3H]-LSD radioligand binding assay. Experiments were performed in a stable HEK293 cell line expressing the human 5-HT6R.
The pellets were stored at −80 °C.

[2] = target: T1, human 5-HT6; experiment: Functional evaluation, cAMP (LANCE Ultra) in HEK293 cells; format: cell-based; conditions: antagonist mode, cAMP induced by 5-CT 1000 nM
Experimental: The supernatant was aspirated, and the cell pellet was resuspended in a stimulation buffer (1 × HBSS, 5 mM HEPES, 0.5 mM IBMX, 0.1% BSA).
The functional properties of compounds were evaluated using the LANCE Ultra cAMP detection kit (PerkinElmer). […] To investigate the antagonist activity, dopamine for D2R was added at a concentration of 10 nM, and for cell lines with 5-HT7R, 5-HT1AR, or 5-HT6R, 5-CT concentrations were adjusted, being, respectively, 10, 100, and 1000 nM, according to the receptor subtype.
For the quantification of cAMP levels, cells (5 µL) were incubated with a 5 µL mixture of necessary compounds for 30 min at room temperature in a 384-well white opaque microtiter plate (PerkinElmer). After incubation, the reaction was stopped, and cells were lysed by the addition of a 10 µL working solution (5 µL Eu-cAMP and 5 µL ULight-anti-cAMP). The assay plate was incubated for 1 h at room temperature. The time-resolved fluorescence resonance energy transfer (TR-FRET) signal was detected by an Infinite M1000 Pro (Tecan, Männedorf, Switzerland) using instrument settings from the LANCE Ultra cAMP detection kit manual.

[3] = Chromatographic hydrophobicity index on C18 column (lipophilicity); format: physicochemical
[4] = Fish embryo toxicity (FET) test, OECD 236; conditions: zebrafish (Danio rerio), in vivo, after 96 h of intoxication
Experimental: To determine the toxicity of the compounds [66], the fish embryo toxicity (FET) test was performed on zebrafish (Danio rerio) according to OECD Test 236. The collected embryos were transferred to a Petri dish with an E3 medium, consisting of 5 mM NaCl; 0.33 mM MgCl2; 0.33 mM CaCl2; and 0.17 mM KCl, and placed in 6-well plates, 10 embryos per well. Stock solutions were prepared in DMSO. The range of different concentrations of the solutions was prepared by dissolving stock solutions in the E3 medium each time directly before addition to the wells. The solutions were changed once daily, and the embryos were maintained in the incubator at 28.5 °C. At the end of the exposure period (96 hpf—hours postfertilization), acute toxicity was determined based on a positive outcome in any of the four visual indicators of lethality, including the coagulation of fertilized eggs, lack of somite formation, lack of detachment of the tailbud from the yolk sac, and lack of heartbeat. The value of LD50 was calculated. Heartbeats were recorded to observe cardiotoxic effects. A dose–response curve was generated using Prism 8.0.1 (GraphPad Software).
Figure 3 (A) Toxicity of PR 68 and PR 73 in vivo in Danio reiro embryo toxicity test. […] Cardiotoxicity of (B) PR 68 and (C) PR 73 measured as heart rate (beats per minute) on 5 dpf Danio rerio larvae, E3—fish embryo growth medium. […]

[5] = tested on: Danio rerio; conditions: in vivo
Experimental: Selected compounds were evaluated for their cardiotoxicity on the Danio rerio experimental model following the OECD 236 test. […] To explore specific toxic effects of tested compounds on the central nervous systems, locomotor activity in the Danio rerio experimental model was evaluated. Studying the reaction of zebrafish larvae to light and dark conditions can be a valuable method for assessing neurotoxicity in behavioral studies. […] This response is characterized by a rapid, coordinated movement, often involving a quick burst of swimming or a change in direction. In our experimental model, we changed light into dark conditions. […] This behavior helps them avoid potential predators and maintain optimal environmental conditions.
To determine the toxicity of the compounds [66], the fish embryo toxicity (FET) test was performed on zebrafish (Danio rerio) according to OECD Test 236. […] At the end of the exposure period (96 hpf—hours postfertilization), acute toxicity was determined based on a positive outcome in any of the four visual indicators of lethality, including the coagulation of fertilized eggs, lack of somite formation, lack of detachment of the tailbud from the yolk sac, and lack of heartbeat. The value of LD50 was calculated. Heartbeats were recorded to observe cardiotoxic effects. […]

[6] = tested on: MCF7 breast carcinoma cell line; experiment: Antiproliferative activity (MTS), MCF7; conditions: Homo sapiens, MCF7, 72 h, read-out: IC50 Values MCF7
[7] = tested on: U-251 glioblastoma cells; experiment: Antiproliferative activity (MTS), U-251; conditions: Homo sapiens, U-251, 72 h, read-out: IC50 Values U-251
[8] = tested on: AsPC-1 pancreas adenocarcinoma cell line; experiment: Antiproliferative activity (MTS), AsPC-1; conditions: Homo sapiens, ASPC1, 72 h, read-out: IC50 Values AsPC-1
[9] = tested on: astrocyte cell line PG-4; experiment: Activity on normal astrocytes (MTS), PG-4; conditions: Felis catus, 72 h, read-out: IC50 Values PG-4
[10] = target: 5-HT7b receptor (Homo sapiens, UniProt P34969); experiment: [3H]-5-CT radioligand binding assay, 5-HT7
Sequence of 5-HT7b receptor (P34969 1-432 limits assumed): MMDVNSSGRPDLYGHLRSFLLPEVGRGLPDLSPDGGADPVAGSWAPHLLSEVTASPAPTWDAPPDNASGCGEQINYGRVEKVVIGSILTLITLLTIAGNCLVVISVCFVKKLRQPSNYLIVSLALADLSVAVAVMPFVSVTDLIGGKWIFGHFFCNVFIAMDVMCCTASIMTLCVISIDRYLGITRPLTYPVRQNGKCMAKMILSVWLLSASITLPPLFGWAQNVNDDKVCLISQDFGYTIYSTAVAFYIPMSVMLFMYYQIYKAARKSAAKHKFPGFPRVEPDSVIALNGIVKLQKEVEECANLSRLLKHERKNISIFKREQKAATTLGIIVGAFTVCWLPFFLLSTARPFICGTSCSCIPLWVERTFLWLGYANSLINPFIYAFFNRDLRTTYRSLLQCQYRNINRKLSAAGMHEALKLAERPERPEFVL

T1 sequence (P50406 whole entry): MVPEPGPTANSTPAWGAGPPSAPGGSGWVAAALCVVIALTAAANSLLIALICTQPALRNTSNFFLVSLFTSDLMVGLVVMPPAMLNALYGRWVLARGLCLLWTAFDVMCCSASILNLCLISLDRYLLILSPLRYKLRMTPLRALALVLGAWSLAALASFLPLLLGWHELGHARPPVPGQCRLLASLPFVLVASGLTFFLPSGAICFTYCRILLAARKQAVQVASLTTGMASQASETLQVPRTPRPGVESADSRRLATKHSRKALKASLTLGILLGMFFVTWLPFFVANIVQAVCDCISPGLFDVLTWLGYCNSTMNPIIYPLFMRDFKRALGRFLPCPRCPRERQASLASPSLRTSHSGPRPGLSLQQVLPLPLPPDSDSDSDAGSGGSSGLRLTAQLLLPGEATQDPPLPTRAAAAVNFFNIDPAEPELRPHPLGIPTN

| SMILES | Ki [1] | Kb [2] | CHI C18 pH 2.6 [3] | CHI C18 pH 7.4 [3] | CHI C18 pH 10.5 [3] | LC50 at 96 h [4] | cardiotoxicity (heart rate) [5] | IC50 [6] | IC50 [7] | IC50 [8] | IC50 [9] | Ki [10] |
| --- | --- | --- | --- | --- | --- | --- | --- | --- | --- | --- | --- | --- |
| CC1NC(NS(=O)(=O)c2cccc3ccccc23)=Nc2cccc(F)c21 (stereo not drawn) [PR 73, N -(5-fluoro-4-methyl-3,4-dihydroquinazolin-2-yl)naphthalene-1-sulfonamide] | 43 ± 11 nM | 134 nM | 94.6 | 94.9 | 96.5 | 10.2 µg/mL (≈ 27.5 µM) | do not show cardiotoxic properties | > 25 µM | > 25 µM | > 25 µM | > 25 µM | 35.8 µM |
| CC1NC(NS(=O)(=O)c2cccc3ccccc23)=Nc2cccc(Cl)c21 (stereo not drawn) [PR 68, N -(5-chloro-4-methyl-3,4-dihydroquinazolin-2-yl)naphthalene-1-sulfonamide] | 37 ± 8 nM | 79 nM | 101.4 | 99.2 | 103.0 | 7.82 µg/mL (≈ 20.3 µM) | do not show cardiotoxic properties | > 25 µM | > 25 µM | > 25 µM | > 25 µM | 19.3 µM |

Reference: publication PMC11477289, “Low-Basicity 5-HT6 Receptor Ligands from the Group of Cyclic Arylguanidine Derivatives and Their Antiproliferative Activity Evaluation” (International Journal of Molecular Sciences, 2024)
